Source: the supplement of paper PMC5908809

What was measured:
IMC-1 (IL-2 20 ng/mL) [1] = experiment: percent inhibition of viability; higher = more inhibition; details: 72 h
[2] = tested on: normal primary NK cells, pool 3 (3 donors) (IL-2 2.5 ng/mL); experiment: as above; details: 72 h
NK-YS (IL-2 2.5 ng/mL) [3] = experiment: as above; details: 72 h
YT (IL-2 2.5 ng/mL) [4] = experiment: as above; details: 72 h
NK-92 (IL-2 2.5 ng/mL) [5] = experiment: as above; details: 72 h
[6] = tested on: normal primary NK cells, pool 1 (3 donors) (IL-2 2.5 ng/mL); experiment: as above; details: 72 h
DERL-7 (IL-2 2.5 ng/mL) [7] = experiment: as above; details: 72 h
[8] = tested on: normal primary NK cells, pool 1 (3 donors), resting (IL-2 0 ng/mL); experiment: as above; details: 72 h
NKL (IL-2 2.5 ng/mL) [9] = experiment: as above; details: 72 h
KHYG-1 (IL-2 2.5 ng/mL) [10] = experiment: as above; details: 72 h
[11] = tested on: normal primary NK cells, pool 2 (3 donors) (IL-2 2.5 ng/mL); experiment: as above; details: 72 h
KAI3 (IL-2 2.5 ng/mL) [12] = experiment: as above; details: 72 h
SNK-6 (IL-2 2.5 ng/mL) [13] = experiment: as above; details: 72 h
[14] = tested on: normal NK cells expanded with K562-aAPC; experiment: drug sensitivity score (DSS) (DSS units); higher = more sensitive; extreme values may be limits of the assay; details: 72 h; IL-2 2.5 ng/mL
Description: (§1)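 Drug sensitivity and resistance testing on K562-aAPC-expanded normal NK cells: 5 concentrations (10-fold steps over a 10,000-fold range), 72 h at 37 °C, viability by CellTiter-Glo normalised to DMSO and benzethonium chloride controls; DSS from the fitted curve.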

[15] = tested on: normal NK cells expanded with K562-aAPC; experiment: percent inhibition of viability; higher = more inhibition; details: 72 h, IL-2 2.5 ng/mL
Description: as §1

IMC-1 (IL-2 20 ng/mL) [16] = experiment: drug sensitivity score (DSS) (DSS units); higher = more sensitive; extreme values may be limits of the assay; details: 72 h
[17] = tested on: normal primary NK cells, pool 3 (3 donors) (IL-2 2.5 ng/mL); experiment: as above; details: 72 h
NK-YS (IL-2 2.5 ng/mL) [18] = experiment: as above; details: 72 h
YT (IL-2 2.5 ng/mL) [19] = experiment: as above; details: 72 h
NK-92 (IL-2 2.5 ng/mL) [20] = experiment: as above; details: 72 h
[21] = tested on: normal primary NK cells, pool 1 (3 donors) (IL-2 2.5 ng/mL); experiment: as above; details: 72 h
DERL-7 (IL-2 2.5 ng/mL) [22] = experiment: as above; details: 72 h
[23] = tested on: normal primary NK cells, pool 1 (3 donors), resting (IL-2 0 ng/mL); experiment: as above; details: 72 h
NKL (IL-2 2.5 ng/mL) [24] = experiment: as above; details: 72 h
KHYG-1 (IL-2 2.5 ng/mL) [25] = experiment: as above; details: 72 h
[26] = tested on: normal primary NK cells, pool 2 (3 donors) (IL-2 2.5 ng/mL); experiment: as above; details: 72 h
KAI3 (IL-2 2.5 ng/mL) [27] = experiment: as above; details: 72 h
SNK-6 (IL-2 2.5 ng/mL) [28] = experiment: as above; details: 72 h

Cn1nnc2c(C(N)=O)ncn2c1=O [Temozolomide] (max concentration tested 100000 nM)
percent inhibition of viability [%]
Details	10 nM	100 nM	1000 nM	10000 nM	100000 nM
DERL-7 (IL-2 2.5 ng/mL) [7]	-3.81	2.52	-0.21	4.75	-1.49
IMC-1 (IL-2 20 ng/mL) [1]	1.34	-6.01	5.36	17.9	74.4
KAI3 (IL-2 2.5 ng/mL) [12]	-11.8	-10.3	-9.47	-11.7	12.9
KHYG-1 (IL-2 2.5 ng/mL) [10]	-3.41	-4.13	0.86	0.71	8.74
NK-92 (IL-2 2.5 ng/mL) [5]	-7.14	-7.33	-5.28	7.55	32.4
NK-YS (IL-2 2.5 ng/mL) [3]	-2.59	-6.14	2.38	3.13	22.3
NKL (IL-2 2.5 ng/mL) [9]	-9.55	-19.8	-10.2	4.85	65.2
SNK-6 (IL-2 2.5 ng/mL) [13]	-0.07	8.23	35.2	72.8	88.5
YT (IL-2 2.5 ng/mL) [4]	-4.31	-3.78	-0.54	-3.29	0.79
[2]	-14.7	-11.8	-7.32	6.58	17.2
[6]	-7.39	2.46	-6.83	-0.09	5.41
[8]	-13.7	-5.7	-14.4	-9.04	-7.4
[11]	-14.2	-9.61	-8.15	11.5	10
[15]	0.11	-2.44	4.25	0.95	10.9

Details	drug sensitivity score
DERL-7 (IL-2 2.5 ng/mL) [22]	0
IMC-1 (IL-2 20 ng/mL) [16]	6.93
KAI3 (IL-2 2.5 ng/mL) [27]	0.01
KHYG-1 (IL-2 2.5 ng/mL) [25]	0
NK-92 (IL-2 2.5 ng/mL) [20]	2.63
NK-YS (IL-2 2.5 ng/mL) [18]	1.21
NKL (IL-2 2.5 ng/mL) [24]	4.31
SNK-6 (IL-2 2.5 ng/mL) [28]	18
YT (IL-2 2.5 ng/mL) [19]	0
[14]	0.02
[17]	1.03
[21]	0
[23]	0
[26]	0.32

C#Cc1cccc(Nc2ncnc3cc(OCCOC)c(OCCOC)cc23)c1 [Erlotinib] (max concentration tested 10000 nM)
percent inhibition of viability [%]
Details	1 nM	10 nM	100 nM	1000 nM	10000 nM
DERL-7 (IL-2 2.5 ng/mL) [7]	0.1	-2.35	-1.33	1.39	48.4
IMC-1 (IL-2 20 ng/mL) [1]	1.33	9.48	7.46	12.3	22.8
KAI3 (IL-2 2.5 ng/mL) [12]	1.13	8.32	-5.25	20	58.5
KHYG-1 (IL-2 2.5 ng/mL) [10]	3.49	6.34	8.19	9.39	47.6
NK-92 (IL-2 2.5 ng/mL) [5]	9.74	4.56	24.3	25.9	43.1
NK-YS (IL-2 2.5 ng/mL) [3]	1.58	1.15	0.89	5.14	24.1
NKL (IL-2 2.5 ng/mL) [9]	5.31	4.23	11.4	14.5	38.5
SNK-6 (IL-2 2.5 ng/mL) [13]	7.98	8.62	18.3	17.6	32.2
YT (IL-2 2.5 ng/mL) [4]	8.58	6.57	10.3	17.4	38.6
[2]	-5.26	-4.35	6.24	-3.65	27.2
[6]	0.75	-3.53	2.15	-7.62	24.8
[8]	-2.01	-10.5	-8.04	-1.92	55.7
[11]	-6.62	-1.77	13.4	4.86	41.7
[15]	0.68	3.68	2.85	12.2	44.6

Details	drug sensitivity score
DERL-7 (IL-2 2.5 ng/mL) [22]	2.71
IMC-1 (IL-2 20 ng/mL) [16]	1.94
KAI3 (IL-2 2.5 ng/mL) [27]	6.03
KHYG-1 (IL-2 2.5 ng/mL) [25]	4.03
NK-92 (IL-2 2.5 ng/mL) [20]	7.75
NK-YS (IL-2 2.5 ng/mL) [18]	1.63
NKL (IL-2 2.5 ng/mL) [24]	3.76
SNK-6 (IL-2 2.5 ng/mL) [28]	5.2
YT (IL-2 2.5 ng/mL) [19]	4.27
[14]	4.14
[17]	0.89
[21]	0.64
[23]	2.81
[26]	2.92
